How the values were obtained:
Format in all cases: cell-based, rat
Lig-1 cells [1] = test: Colony formation efficiency, Lig-1
Lig-2 cells = test: Colony formation efficiency, Lig-2
Lig-3 cells [2] = test: Colony formation efficiency, Lig-3
Lig-4 cells = test: Colony formation efficiency, Lig-4
Lig-6 cells = test: Colony formation efficiency, Lig-6
Lig-7 cells = test: Colony formation efficiency, Lig-7
Lig-8 cells [3] = test: Colony formation efficiency, Lig-8
Lig-9 cells [4] = test: Colony formation efficiency, Lig-9
Lig-13 cells [5] = test: Colony formation efficiency, Lig-13
Lig-14 cells = test: Colony formation efficiency, Lig-14
Lig-15 cells = test: Colony formation efficiency, Lig-15
Xs-derived cell lines = test: Colony formation efficiency, Xs-derived lines as a group; conditions: n=8
Source text: (§1) There was a marked difference in the cell kinetics properties of early passage conventional lines (Lig-1 to -3 in Table 1) and Xs-derived lines (Lig-4 to -15 in Table 1). […] The estimated mean increase in colony formation efficiency for Xs-derived cell lines in Xs-supplemented medium was 11-fold (n=8), ranging from a 10% increase to a 40-fold increase (Lig-13 in Table 1; p<0.0001). The growth of conventional cell lines was unaffected by Xs even when the Xs concentration was doubled (data not shown). [table]

conventional cell lines = test: Growth of conventional cell lines with Xs; conditions: even when the Xs concentration was doubled (data not shown)
Source text: as §1, with “shown).” for “shown). [table]”

Lig-9 cells [6] = test: Fc(t) assay for asymmetric cell kinetics, Lig-9
Protocol: To initiate the assay, 100 cells were plated in 75-cm^2 flasks. After a 16-hour growth period, pairs of new daughter cells were identified under the microscope, and their positions marked for serial examination. Thereafter, the marked microcolonies were examined at roughly ⅓ GT intervals for at least 2 generations. At each examination, the fraction of cells that divided during the previous interval was calculated as described (Sherley et al., 1995a). The estimated cell GT of examined lines was determined simultaneously as described (Sherley et al., 1995ab).
A previously described serial colony formation analyses (the “Fc[t] assay”; Sherley et al., 1995a) was used to quantify the degree of asymmetric cell kinetics by Xs-derived cell lines. The Fc(t) assay quantifies the accumulation rate of cells in micro-colonies examined by serial phase microscopy at intervals of less than one GT from the 2-cell stage (Sherley et al., 1995a). Fc(t) is calculated by summing the fractions of dividing cells determined in each interval and dividing by the total number of GTs examined. When cells divide with symmetric kinetics, the value of Fc(t) approaches 1.0, regardless of the length of the examination period. For asymmetric kinetics, in which one non-dividing daughter is produced at each cell division, Fc(t) is a declining flnction that approaches […] with increasing exam time. […]

Lig-8 cells [7] = test: Daughter pair analysis (DPA), Lig-8; conditions: Xs added, 16% in the absence of Xs, n=58 pairs
Protocol: (§2) Into 10-cm diameter culture dishes, an estimated 1750 cells were plated in DMEM-10% dFBS, supplemented at the Xs concentration used for derivation, and cultured for 16 hours. Medium was then replaced with either Xs-free medium or medium containing 100 μM Xs, and cells were cultured for an additional 48 h (GT=60 h). Bromo-5-deoxyuridine (BrdU) was then added to the cultures to a concentration of 5 μM for 5 hours. Detection of incorporated BrdU was performed using primary antibody Bu1-75 (Harlan), and a biotinylated secondary antibody (Vector Laboratories) with avidin-fluorescein visualization. Nuclei were detected by staining with 0.5 μg/ml DAPI (Molecular Probes). Images were captured using a Nikon TE300 microscope, Orca camera, and Openlab software (Improvision). The assay is called a “daughter pair analysis” (DPA). To perform the DPA, cells were plated in Xs-containing medium at microcolony density. After allowing 4 to 5 hours for cell adherence, parallel cultures were replaced with fresh medium that was either Xs-supplemented or Xs-free. After allowing time for cell divisions to produce “daughter pairs”, the cells were cultured for 4 hours with the thymidine analogue bromodeoxyuridine (BrdU). Cells were then fixed and evaluated for BrdU incorporation by in situ immunofluorescence.

Lig-13 cells [8] = test: Daughter pair analysis (DPA), Lig-13; conditions: independent of Xs concentration
Protocol: as §2

Lig-8 cells [9] = test: Differentiation marker expression, Xs-free vs Xs-supplemented, Lig-8; design: key: −: no expression detected; +/−: weak expression; +: expression detected; !: increased expression in Xs-free conditions; *: no increased expression in Xs-free conditions
Lig-13 cells [10] = test: Differentiation marker expression, Xs-free vs Xs-supplemented, Lig-13; design: key: −: no expression detected; +/−: weak expression; +: expression detected; !: increased expression in Xs-free conditions; *: no increased expression in Xs-free conditions
Protocol: To prepare cell lysates, cells were cultured until 95% confluent. After washing once with ice cold PBS, the cells were solubilized on ice in ice-cold lysis buffer (RIPA buffer; Hinds et al., 1987). The cell lysates were clarified by centrifugation at 13,000 rpm (Eppendorf™ microfuge) for 30 minutes at 4°0 C. and stored at −70°0 C. until further analysis. Soluble protein in lysates was quantified using the Bio-Rad DC™ assay. Twenty micrograms of cell lysates or 25 μl of culture medium samples were separated by SDS-PAGE (8-12% polyacrylamide) and analyzed for specific proteins by the following immunoblot procedure. Electrophoresed proteins were transferred to Hybond ECL membranes in Tris-Glycine-Methanol buffer (25 mM Tris-HCl, pH 7.5, 190 mM glycine, 20% methanol) for 1 hour at 100 volts at room temperature. Membranes were then stained with Ponceau S (0.5%) to verify uniform protein transfer and then blocked with Tris-buffered saline, 5% non-fat dried milk, 0.1% Tween-20 at room temperature for 1 hour. Following three 10-minute washes at room temperature in Tris-buffered saline, 0.1% Tween-20, the membranes were incubated with the specific primary antibodies diluted appropriately in Tris-buffered saline, 1% milk, 0.1% Tween-20 for 12-15 hours at 4° C. For albumin detection, membranes were incubated with an anti-albumin-HRP antibody (EY Laboratories) for 1 hour at room temperature. After removal of the unbound antibodies with three 10-minute washes in Tris-buffered saline-0.1% Tween-20, the membranes (except for albumin detection) were incubated with the anti-goat-HRP (1:2000) or anti-mouse HRP (1:5000) for 1 hour at room temperature. After three 10-minute washes with Tris-buffered saline-0.1% Tween-20, specifically bound HRP-conjugated antibodies were detected using the Amersham Enhanced Chemiluminescence Plus™ system. To re-probe a membrane with a different antibody, it was first incubated for 2.5 h in 0.1M glycine (pH 2.5) at room temperature. Immunohistochemical staining was performed with HRP-conjugated secondary antibodies as recommended by the supplier of primary detection antibodies. [table]

Lig-1 cells [11] = test: Differentiation marker expression, Xs-free conditions, Lig-1; design: key: −: no expression detected; +/−: weak expression; +: expression detected; !: increased expression in Xs-free conditions; *: no increased expression in Xs-free conditions; conditions: in situ immunofluorescence, confluent growth arrest in 1% serum 1-2 weeks
Lig-3 cells [12] = test: Differentiation marker expression, Xs-free conditions, Lig-3; design: key: −: no expression detected; +/−: weak expression; +: expression detected; !: increased expression in Xs-free conditions; *: no increased expression in Xs-free conditions; conditions: in situ immunofluorescence, confluent growth arrest in 1% serum 1-2 weeks
[13] = 50 μM xanthosine, 200 cells per well, 14 days
[14] = colony formation efficiency, 50 μM xanthosine vs Xs-free
[15] = in situ immunofluorescence, confluent growth arrest in 1% serum 1-2 weeks

SMILES: O=c1[nH]c(=O)c2ncn([C@@H]3O[C@H](CO)[C@@H](O)[C@H]3O)c2[nH]1 [Xs, Xanthosine]
- Colony formation efficiency Xs+ (Mean % ± SD; n = 6) (Lig-1 cells [1]; [13]): 9.8 ± 2.2%
- Xs+/Xs− Ratio (Lig-1 cells [1]; [14]): 0.9
- Colony formation efficiency Xs+ (Mean % ± SD; n = 6) (Lig-2 cells; [13]): 29 ± 3.7%
- Xs+/Xs− Ratio (Lig-2 cells; [14]): 1.0
- Colony formation efficiency Xs+ (Mean % ± SD; n = 6) (Lig-3 cells [2]; [13]): 18 ± 3.7%
- Xs+/Xs− Ratio (Lig-3 cells [2]; [14]): 1.0
- Colony formation efficiency Xs+ (Mean % ± SD; n = 6) (Lig-4 cells; Lig-4 (derived in 400 μM Xs), 50 μM xanthosine, 200 cells per well, 14 days): 8.0 ± 1.1%
- Xs+/Xs− Ratio (Lig-4 cells; Lig-4, colony formation efficiency, 50 μM xanthosine vs Xs-free): 1.5
- Colony formation efficiency Xs+ (Mean % ± SD; n = 6) (Lig-6 cells; Lig-6 (derived in 400 μM Xs), 50 μM xanthosine, 200 cells per well, 14 days): 5.3 ± 1.8%
- Xs+/Xs− Ratio (Lig-6 cells; Lig-6, colony formation efficiency, 50 μM xanthosine vs Xs-free): 1.4
- Colony formation efficiency Xs+ (Mean % ± SD; n = 6) (Lig-7 cells; Lig-7 (derived in 400 μM Xs), 50 μM xanthosine, 200 cells per well, 14 days): 6.7 ± 2.2%
- Xs+/Xs− Ratio (Lig-7 cells; Lig-7, colony formation efficiency, 50 μM xanthosine vs Xs-free): ≧22
- Colony formation efficiency Xs+ (Mean % ± SD; n = 6) (Lig-8 cells [3]; Lig-8 (derived in 400 μM Xs), 50 μM xanthosine, 200 cells per well, 14 days): 22 ± 3.6%
- Xs+/Xs− Ratio (Lig-8 cells [3]; Lig-8, colony formation efficiency, 50 μM xanthosine vs Xs-free): 17
- Colony formation efficiency Xs+ (Mean % ± SD; n = 6) (Lig-9 cells [4]; Lig-9 (derived in 400 μM Xs), 50 μM xanthosine, 200 cells per well, 14 days): 11 ± 2.6%
- Xs+/Xs− Ratio (Lig-9 cells [4]; Lig-9, colony formation efficiency, 50 μM xanthosine vs Xs-free): 1.1
- Colony formation efficiency Xs+ (Mean % ± SD; n = 6) (Lig-13 cells [5]; Lig-13 (derived in 200 μM Xs), 50 μM xanthosine, 200 cells per well, 14 days): 12 ± 2.7%
- Xs+/Xs− Ratio (Lig-13 cells [5]; Lig-13, colony formation efficiency, 50 μM xanthosine vs Xs-free): 40
- increase in colony formation efficiency in Xs-supplemented medium (Lig-13 cells [5]; Lig-13, p<0.0001): 40 fold
- Colony formation efficiency Xs+ (Mean % ± SD; n = 6) (Lig-14 cells; Lig-14 (derived in 200 μM Xs), 50 μM xanthosine, 200 cells per well, 14 days): 0.4 ± 0.67%
- Xs+/Xs− Ratio (Lig-14 cells; Lig-14, colony formation efficiency, 50 μM xanthosine vs Xs-free): 1.3
- Colony formation efficiency Xs+ (Mean % ± SD; n = 6) (Lig-15 cells; Lig-15 (derived in 200 μM Xs), 50 μM xanthosine, 200 cells per well, 14 days): 10 ± 1.6%
- Xs+/Xs− Ratio (Lig-15 cells; Lig-15, colony formation efficiency, 50 μM xanthosine vs Xs-free): 5.3
- estimated mean increase in colony formation efficiency in Xs-supplemented medium (Xs-derived cell lines): 11 fold
- growth of conventional cell lines with Xs (conventional cell lines): unaffected
- effect of Xs on terminal division fraction (Lig-9 cells [6]; 100 μM Xs): did not significantly affect
- Terminal Division Fraction (Lig-9 cells [6]; Xs+, 2-cell microcolonies with no division in 5 days, Xs− 0.58): 0.47
- fraction of double-BrdU(+) daughter pairs (Lig-8 cells [7]): 76%
- fraction of symmetric BrdU(+) daughter pairs (Lig-13 cells [8]): 76%
- Albumin (ALB) expression, change in Xs-free conditions (Lig-8 cells [9]; immunoblot): +!
- Cytokeratin 7 (CK7) expression, change in Xs-free conditions (Lig-8 cells [9]; immunoblot): +*
- α1-Antitrypsin (AAT) expression, change in Xs-free conditions (Lig-8 cells [9]; immunoblot): +!
- α-Fetoprotein (AFP) expression, change in Xs-free conditions (Lig-8 cells [9]; immunoblot): +!
- H.4 expression, change in Xs-free conditions (Lig-8 cells [9]; [15]): +!
- Albumin (ALB) expression, change in Xs-free conditions (Lig-13 cells [10]; immunoblot): +*
- Cytokeratin 7 (CK7) expression, change in Xs-free conditions (Lig-13 cells [10]; immunoblot): +!
- α1-Antitrypsin (AAT) expression, change in Xs-free conditions (Lig-13 cells [10]; immunoblot): +/−*
- α-Fetoprotein (AFP) expression, change in Xs-free conditions (Lig-13 cells [10]; immunoblot): +*
- H.4 expression, change in Xs-free conditions (Lig-13 cells [10]; [15]): +/−*
- H.4 expression, change in Xs-free conditions (Lig-1 cells [11]): +*
- H.4 expression, change in Xs-free conditions (Lig-3 cells [12]): +/−*

— patent US7645610B2, “Hepatocyte precursor cell lines” (Massachusetts Institute of Technology, priority 2002, dated 2010)
